From US20130018062A1, “Pain therapy with metabolism blocked antifolates” (priority 2011, published 2013)
Read-outs that look alike come from different tables or passages of the source.

Legend:
[1] = Toxicity (maximum tolerated dose, weight loss) in nude mice bearing HCT-8 xenograft; format: in vivo; details: i.v. push daily × 5 in nude mice
C-Reactive Protein (CRP) [2] = assay: Plasma CRP levels of patients on therapy with M-Trex for Rheumatoid Arthritis (Example-2); format: in vivo, human; details: arthritic patients taking M-Trex, clinical study by Castaneda and Nair
Text: Coronary Heart Disease (CHD), Cardio-vascular diseases (CVD) and Stroke are of the same generic species by virtue of Inflammation being the common underlying cause of their occurrence. In fact an article by the American Heart Association entitled “Inflammation, Heart Disease and Stroke. The role of C-Reactive Protein” stressed that markers of Inflammation are more accurate and reliable predictive factors than total cholesterol levels in humans. [www.americanheart.org/presenter.jhtml?presenter=4648]. The most accurate predictive factor for the incidence of CHD, CVD and stroke is elevated levels of C-Reactive Protein (CRP).

C-Reactive Protein (CRP) [3] = system: C-Reactive Protein (CRP); set-up: unit not given here; details: RA patients on therapy with M-Trex, cited from earlier work
OVCAR-8 (Ovarian Cancer) = assay: Growth inhibition of human tumor cells in culture (NCI); format: cell-based
Text: (§1) The preceding data collected at the National Cancer Institute summarize the ability of M-Trex to inhibit 50% of the growth of selected tumor cells in culture. The values are expressed as Log10 GI50 values all of which are lower than 10^−8M. In the same table a comparison is made of the respective values of TGI (Total Growth Inhibition) for M-Trex and MTX. […] In addition, the Log10 GI50 values of M-Trex was lower than −8.00 for the following cell lines: NSCLC, A549/ATCC and NCI H23; Colon Cancer, HCT 116, HCT 29 and SW 620; CNS Cancer, SF 268; Melanoma M 14 and UACC 62; Ovarian Cancer, OVCAR-8; Renal Cancer, ACHN, CAKI-1, SN 12C, and UO 31; Prostate Cancer, PC 3 and Breast cancer, MDA-MB-435 and MDA-N. The MG_MID value of MTX for all 49 human tumor cell lines evaluated at NCI-DTP program was −7.05. […] The tumors and sarcomas are solid while leukemia and lymphoma are liquid tumors.

SW 620 (Colon Cancer) = assay: as above; format: cell-based
Text: as §1

NCI H23 (NSCLC) = assay: as above; format: cell-based
Text: as §1

[4] = system: MDA-MB-435 (Breast cancer); assay: as above; format: cell-based
Text: as §1

[5] = system: patients with Rheumatoid Arthritis; assay: Morning stiffness and swollen joints in patients with Rheumatoid Arthritis treated with M-Trex (Example-6); format: in vivo, human
Text: MS (Morning Stiffness); S. Joints (Swollen Joints) were remarkably responsive to M-Trex therapy. Stiffness exacerbates Pain especially in joints by virtue of inflexibility and reduction is blood circulation. Swelling of joints is secondary to inflammation caused by autoimmune response in patients with Rheumatoid Arthritis. […] The initial numbers represents the values at the start of the study before the treatment and the remaining four numbers are values determined during each visit while taking M-Trex medication.
In joints stiffness (duration measured in minutes as above) is caused by inflammation of the synovium that lines the joint. Inflammation due to bone spurs as in Oesteo-arthritis causes Pain. Thus reduction of stiffness reduces the severity of inflammation and Pain. Abnormal tissue growth characterized by benign and malignant neoplasms cause stiffness due to compression of tissues, interfering with blood flow and irritation of the autonomic nervous system. Metabolism blocked antifolates are shown to be capable of decompression of tissues by interfering with tissue growth as shown in Examples 4, 5 and 6. These examples establish that metabolism blocked antifolates can decompress cancer tissues and ameliorate cancer pain.

[6] = Laboratory values (toxicity) of Rheumatoid Arthritis patients on M-Trex; format: in vivo, human; details: M-Trex 7.5 mg per day; for CREATININE / GLUCOSE / SGOT / ALK. PHOSPHAT / SGTP / HEMOGLOB: RA patients; for ALK. PHOSPHAT / SGTP: in U/L (unit assumed); for HEMOGLOB: in g/dL (unit assumed)
[7] = system: Human HCT-8 Colon Xenograft; assay: Antitumor activity in nude mice bearing human HCT-8 colon xenograft (Example-4); format: in vivo; details: i.v. push daily × 5 at maximum tolerated dose (M-Trex 4.0, MTX 1.0 mg/kg/day)
Text: There are three general accepted methods for the evaluation of Pain in patients suffering from a number of diseases. They are Visual Analog Scale (VAS); Numeric rating Scale (NRS) and Verbal Categorical Rating Scale […]. Of these three assessment methods VAS is considered to be most reliable in a majority of cases to evaluate and quantify the magnitude of the perception of Pain. Clinical trials conducted by Castaneda and Nair used VAS to assess pain intensity in RA patients receiving 10-DAAM in one trial [G. Alarcon, O. Castaneda, W. J. Koopman, C. L. Krumdieck, and M. G. Nair. U.S. Pat. No. 5,030,634 (1991)] and M-Trex (CH-1504) in another trial conducted separately. Almost all cases of cancer Pain is due to tissue inflammation, tissue compression and tissue damage secondary to rapid proliferation of cells. Therefore any therapeutic intervention that shrinks proliferating tissues can bring about significant reduction in Pain. Shown below is the efficacy of M-Trex in shrinking human colon cancer transplanted and growing in nude mice.

[8] = first visit while taking M-Trex
[9] = fourth visit while taking M-Trex
[10] = second visit while taking M-Trex
[11] = start of the study before the treatment
[12] = third visit while taking M-Trex

Q: For `C=C(CC(NC(=O)c1ccc(CCc2ccc3nc(N)nc(N)c3c2)cc1)C(=O)O)C(=O)O` (stereo not drawn) [M-Trex, 4′-methylene-5,8-10-trideazaaminopterin], which “Maximum Tolerated dose” value [1] is on record?
A: M-Trex (4.0 mg/kg/day)

Q: What about the “Change of CRP levels (in words)” value (C-Reactive Protein (CRP) [2]) of the same molecule?
A: significant and consistent reduction

Q: What about the “Plasma CRP Levels” value (C-Reactive Protein (CRP) [3]; visit at 4 weeks) of the same molecule?
A: 22.1

Q: What about the “Plasma CRP Levels” value (C-Reactive Protein (CRP) [3]; visit at 8 weeks) of the same molecule?
A: 20.7

Q: And the “Plasma CRP Levels” value (C-Reactive Protein (CRP) [3]; visit at 12 weeks)?
A: 17.7

Q: And the “Plasma CRP Levels” value (C-Reactive Protein (CRP) [3]; visit at 16 weeks)?
A: 13.6

Q: And the “Log10 GI50” value (OVCAR-8 (Ovarian Cancer))?
A: lower than −8.00

Q: What about the “Log10 GI50” value (SW 620 (Colon Cancer)) of the same molecule?
A: lower than −8.00

Q: What about the “Log10 GI50” value (NCI H23 (NSCLC)) of the same molecule?
A: lower than −8.00

Q: What about the “Log10 GI50” value [4] of the same molecule?
A: lower than −8.00

Q: And the “MS (Morning Stiffness), duration” value [5, 8]?
A: 26′ minutes

Q: And the “S. Joints (number of Swollen Joints)” value [5, 8]?
A: 5.6

Q: What about the “MS (Morning Stiffness), duration” value [5, 9] of the same molecule?
A: 14′ minutes

Q: What about the “S. Joints (number of Swollen Joints)” value [5, 9] of the same molecule?
A: 2.9

Q: And the “MS (Morning Stiffness), duration” value [5, 10]?
A: 22′ minutes

Q: What about the “S. Joints (number of Swollen Joints)” value [5, 10] of the same molecule?
A: 3.5

Q: What about the “MS (Morning Stiffness), duration” value [5, 11] of the same molecule?
A: 99′ minutes

Q: And the “S. Joints (number of Swollen Joints)” value [5, 11]?
A: 12.5

Q: And the “MS (Morning Stiffness), duration” value [5, 12]?
A: 20′ minutes

Q: What about the “S. Joints (number of Swollen Joints)” value [5, 12] of the same molecule?
A: 3.0

Q: What about the CREATININE ([6]; VISIT 2) of the same molecule?
A: 0.79 mg/dL

Q: What about the GLUCOSE ([6]; VISIT 2) of the same molecule?
A: 83.8 mg/dL

Q: And the SGOT ([6]; VISIT 2)?
A: 14.6 U/L

Q: And the “ALK. PHOSPHAT” value ([6]; VISIT 2)?
A: 107.75

Q: And the SGTP ([6]; VISIT 2)?
A: 17.75

Q: What about the HEMOGLOB ([6]; VISIT 2) of the same molecule?
A: 11.77

Q: And the CREATININE ([6]; VISIT 3)?
A: 0.95 mg/dL

Q: What about the GLUCOSE ([6]; VISIT 3) of the same molecule?
A: 95 mg/dL

Q: What about the SGOT ([6]; VISIT 3) of the same molecule?
A: 16 U/L

Q: And the “ALK. PHOSPHAT” value ([6]; VISIT 3)?
A: 86

Q: What about the SGTP ([6]; VISIT 3) of the same molecule?
A: 17

Q: What about the HEMOGLOB ([6]; VISIT 3) of the same molecule?
A: 12.43

Q: What about the CREATININE ([6]; VISIT 4) of the same molecule?
A: 0.85 mg/dL

Q: What about the GLUCOSE ([6]; VISIT 4) of the same molecule?
A: 87.5 mg/dL

Q: What about the SGOT ([6]; VISIT 4) of the same molecule?
A: 16 U/L

Q: What about the “ALK. PHOSPHAT” value ([6]; VISIT 4) of the same molecule?
A: 89.3

Q: And the SGTP ([6]; VISIT 4)?
A: 25

Q: What about the HEMOGLOB ([6]; VISIT 4) of the same molecule?
A: 12.18

Q: And the CREATININE ([6]; VISIT 5)?
A: 0.85 mg/dL

Q: What about the GLUCOSE ([6]; VISIT 5) of the same molecule?
A: 88.1 mg/dL

Q: And the SGOT ([6]; VISIT 5)?
A: 17.3 U/L

Q: What about the “ALK. PHOSPHAT” value ([6]; VISIT 5) of the same molecule?
A: 87.1

Q: What about the SGTP ([6]; VISIT 5) of the same molecule?
A: 20

Q: And the HEMOGLOB ([6]; VISIT 5)?
A: 12.26

Q: What about the CREATININE ([6]; VISIT 6) of the same molecule?
A: 0.92 mg/dL

Q: And the GLUCOSE ([6]; VISIT 6)?
A: 92.4 mg/dL

Q: What about the SGOT ([6]; VISIT 6) of the same molecule?
A: 14.9 U/L

Q: What about the “ALK. PHOSPHAT” value ([6]; VISIT 6) of the same molecule?
A: 85.42

Q: What about the SGTP ([6]; VISIT 6) of the same molecule?
A: 18.21

Q: And the HEMOGLOB ([6]; VISIT 6)?
A: 12.56

Q: And the CREATININE ([6]; VISIT 7)?
A: 0.84 mg/dL

Q: And the GLUCOSE ([6]; VISIT 7)?
A: 90.3 mg/dL

Q: And the SGOT ([6]; VISIT 7)?
A: 15.2 U/L

Q: And the “ALK. PHOSPHAT” value ([6]; VISIT 7)?
A: 86.5

Q: And the SGTP ([6]; VISIT 7)?
A: 18

Q: What about the HEMOGLOB ([6]; VISIT 7) of the same molecule?
A: 12.48

Q: And the “Toxicity according to laboratory values” ([6]; patients with Rheumatoid Arthritis)?
A: not associated with any measurable toxicity

Q: And the “MTGI, Maximum Tumor Growth Inhibition (% of control)” value ([7]; nude mice, HCT-8 xenograft)?
A: 91.4 ± 2.2%

Q: What about the “Tumor doubling time, treated/control (%)” value ([7]; nude mice, HCT-8 xenograft) of the same molecule?
A: 623.08%

Q: What about the “TD, Tumor Doubling Time” value ([7]; control 2.6 ± 0.8 days) of the same molecule?
A: 16.2 ± 3.2 days
